{"source": "ChEMBL document CHEMBL3870324", "about": "“Asnovolins A-G, Spiromeroterpenoids Isolated from the Fungus Aspergillus novofumigatus, and Suppression of Fibronectin Expression by Asnovolin E” (J Nat Prod, 2016)", "key": {"Homo sapiens [1]": {"species": "Homo sapiens", "experiment": "Inhibition of fibronectin expression in HNDF at 25 uM after 24 hrs by Western blot analysis relative to control", "type": "functional"}, "Homo sapiens [2]": {"species": "Homo sapiens", "experiment": "Inhibition of fibronectin expression in HNDF after 24 hrs by Western blot analysis", "type": "functional"}}, "data": [{"smiles": "C=C(C)[C@@H]1CC[C@H](C)[C@@]2(C[C@@]3(C)C(=C(C)C(=O)[C@@H](C(=O)OC)[C@@H]3C)O2)[C@@]1(C)CCC(=O)OC", "values": [{"measurement": "inhibition", "setting": "Homo sapiens [1]", "value": 87, "unit": "%"}, {"measurement": "inhibition", "setting": "Homo sapiens [2]", "value": "Dose-dependent effect"}]}]}
